According to PubChem BioAssay AID449725 (University of Pittsburgh Molecular Library Screening Center, 2010):
Activity calls are given as the source filed them. No rule for the calls is given here.

Each compound was assayed on IMR-90 human lung fibroblast viability counter screen (assay: cytotoxicity in human IMR-90 lung fibroblasts – cell-based, IC50, cytotoxicity control, dose response (AID 449725);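 also: 48 hour compound exposure before the viability read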).
For `O=c1c2ccccc2on1-c1ccccc1`, the IC50 was > 25 µM (inactive).
With `O=c1c2cc(N3CCOCC3)ccc2sn1-c1ccccc1` the IC50 was 20.9 µM.
For `COc1ccc(CC(=O)Nc2cc(Cl)ccc2C(=O)O)cc1`, the IC50 was > 25 µM (inactive).
In the case of `COc1ccc(S(=O)(=O)Nc2cc(Cl)ccc2C(=O)O)cc1`, the IC50 is reported as > 25 µM (inactive).
For `COc1ccc(C(=O)NC(C(=O)O)c2ccccc2)cc1` (configuration not stated), the IC50 was > 25 µM (inactive).
`COc1cccc(-n2sc3ccccc3c2=O)c1` was tested, and the IC50 was 6.34 µM.
In the case of `COc1ccc(C(=O)Nc2cc(F)cc(F)c2O)cc1`, the IC50 is reported as > 25 µM (inactive).
In the case of `O=C(Nc1cc(Cl)ccc1C(=O)O)c1ccc2c(c1)CCC2`, the IC50 is reported as > 25 µM (inactive).
In the case of `O=C(Cn1sc2ccccc2c1=O)NCc1ccccc1`, the IC50 is reported as 6.37 µM.
With `CC(C)(C)c1ccc(C(=O)N2CCC(=O)c3ccc(Cl)cc32)cc1` the IC50 was > 25 µM (inactive).
For `O=C(Nc1cc(Cl)ccc1C(=O)O)c1ccc2c(c1)CCCC2`, the IC50 was > 25 µM (inactive).
With `O=c1c2cc(F)ccc2sn1-c1ccc(Cl)cc1` the IC50 was > 25 µM (inactive).
`COc1cc(C(=O)Nc2cc(Cl)ccc2C(=O)O)cc(OC)c1OC` was tested, and the IC50 was > 25 µM (inactive).
In the case of `CCCc1ccc(C(=O)Nc2cc(Cl)ccc2C(=O)O)cc1`, the IC50 is reported as > 25 µM (inactive).
In the case of `O=c1c(O)c(-c2ccc(O)c(O)c2)oc2cc(O)cc(O)c12`, the IC50 is reported as > 25 µM (inactive).
`O=C(Nc1ccccc1)n1sc2ccccc2c1=O` gave an IC50 of 1.66 µM.
With `COC(=O)c1ccc(Cl)cc1NC(=O)c1ccccc1OC` the IC50 was > 25 µM (inactive).
With `O=C(Cn1sc2ccccc2c1=O)Nc1cccc(F)c1` the IC50 was > 25 µM (inactive).
For `COc1ccc(C(=O)Nc2cc(F)ccc2C(=O)O)cc1`, the IC50 was > 25 µM (inactive).
With `COc1ccc(C(=O)Nc2cc(Cl)ccc2-c2nn[nH]n2)cc1` the IC50 was > 25 µM (inactive).
`Cc1ccc(NC(=O)Cn2sc3ccccc3c2=O)cc1` was tested, and the IC50 was 11 µM.
With `O=c1c2ccc(F)cc2sn1Cc1ccccc1` the IC50 was > 25 µM (inactive).
With `COc1ccc(C(=O)Nc2cc(OC)ccc2C(=O)O)cc1` the IC50 was > 25 µM (inactive).
For `COc1ccc(NC(=O)c2ccccc2SCc2ccccc2)cc1`, the IC50 was > 25 µM (inactive).
`O=c1c2cc(C(F)(F)F)ccc2sn1-c1ccccc1` showed an IC50 of 12 µM.
In the case of `COc1ccc(C(=O)Nc2ccccc2C(=O)O)cc1`, the IC50 is reported as > 25 µM (inactive).
`COC(=O)c1ccc(Cl)cc1NC(=O)c1ccc(Cl)cc1` was tested, and the IC50 was > 25 µM (inactive).
In the case of `COc1ccc(C(=O)Nc2cc(C)ccc2C(=O)O)cc1`, the IC50 is reported as > 25 µM (inactive).
`CC(C)c1cccc(C(=O)Nc2cc(Cl)ccc2C(=O)O)c1` was tested, and the IC50 was > 25 µM (inactive).
Work on `COc1ccccc1-n1sc2ccccc2c1=O` yielded an IC50 of 6.29 µM.
Compound `O=c1c2cc([N+](=O)[O-])ccc2sn1-c1ccccc1` has an IC50 of 10.2 µM.
`COc1ccc(C(=O)Nc2c(C(=O)O)ccc(Cl)c2Cl)cc1` was tested, and the IC50 was > 25 µM (inactive).
In the case of `COc1ccc(C(=O)Nc2cc(-c3ccccc3)ccc2C(=O)O)cc1`, the IC50 is reported as > 25 µM (inactive).
For `O=C1CCN(C(=O)Nc2cc(Cl)ccc2C(=O)O)CC1`, the IC50 was > 25 µM (inactive).
In the case of `O=C1c2cc(Br)ccc2S(=O)N1c1ccccc1` (configuration not stated), the IC50 is reported as > 25 µM (inactive).
In the case of `O=C(NCc1ccccc1)n1sc2ccccc2c1=O`, the IC50 is reported as > 25 µM (inactive).
For `CC(C)(C)c1ccc(C(=O)Nc2cc(Cl)ccc2-c2nn[nH]n2)cc1`, the IC50 was > 25 µM (inactive).
`O=C1c2cccc(Br)c2SCN1c1ccccc1` was tested, and the IC50 was > 25 µM (inactive).
For `COc1ccc(C(=O)Nc2cc(Cl)c(C)cc2C(=O)O)cc1`, the IC50 was > 25 µM (inactive).
In the case of `COc1ccc(C(=O)O)c(NC(=O)c2ccc(Cl)cc2)c1`, the IC50 is reported as > 25 µM (inactive).
In the case of `O=C(Cn1sc2ccccc2c1=O)Nc1ccc(C(F)(F)F)cc1`, the IC50 is reported as 13.9 µM.
`CCOc1ccc(C(=O)Nc2cc(Cl)ccc2C(=O)O)cc1` was tested, and the IC50 was > 25 µM (inactive).
`COc1ccc(C(=O)Nc2cc(Cl)ccc2C(=O)O)cn1` was tested, and the IC50 was > 25 µM (inactive).
In the case of `O=C(Cn1sc2ccccc2c1=O)Nc1ccc(F)cc1`, the IC50 is reported as 6.87 µM.
In the case of `CC(C)(C)c1ccc(C(=O)Nc2cc(Cl)c(Br)cc2C(=O)O)cc1`, the IC50 is reported as > 25 µM (inactive).
With `Cc1ccc(C(=O)Nc2cc(Cl)ccc2C(=O)O)cc1` the IC50 was > 25 µM (inactive).
Work on `CCOC(=O)Cn1sc2ccccc2c1=O` yielded an IC50 of 6.35 µM.
In the case of `O=c1c2cc(F)ccc2sn1-c1ccccc1`, the IC50 is reported as > 25 µM (inactive).
In the case of `O=C(O)c1ccc(Cl)cc1NC(=O)N1CCOCC1`, the IC50 is reported as > 25 µM (inactive).
In the case of `Cc1cccc(C(=O)Nc2cc(Cl)ccc2C(=O)O)c1`, the IC50 is reported as > 25 µM (inactive).
In the case of `N#Cc1ccc(Oc2ccc3c(c2)B(O)OC3)cc1`, the IC50 is reported as > 25 µM (inactive).
In the case of `Cc1ccc(C(=O)Nc2cc(Cl)ccc2C(=O)O)cc1C`, the IC50 is reported as > 25 µM (inactive).
`CN(Cc1ccccc1)C(=O)Cn1sc2ccccc2c1=O` showed an IC50 of 15.2 µM.
`COc1ccc2c(c1)CN(c1cc(Cl)ccc1C(=O)O)C2=O` was tested, and the IC50 was > 25 µM (inactive).
In the case of `O=C(Nc1cc(Cl)ccc1C(=O)O)c1cocn1`, the IC50 is reported as > 25 µM (inactive).
`O=C(Cn1sc2ccccc2c1=O)Nc1ccccc1I` was tested, and the IC50 was > 25 µM (inactive).
With `CCC(C)(C)c1ccc(C(=O)Nc2cc(Cl)ccc2C(=O)O)cc1` the IC50 was > 25 µM (inactive).
In the case of `COC(=O)c1ccc(Cl)cc1NC(=O)c1ccc(OC)cc1`, the IC50 is reported as > 25 µM (inactive).
`Cc1ccc(-n2sc3cc(F)ccc3c2=O)c(C)c1` showed an IC50 of 6.4 µM.
`O=c1c2cc(F)ccc2sn1-c1ccccc1Cl` gave an IC50 of 6.16 µM.
For `O=c1c2ccccc2sn1-c1ccc(Cl)cc1`, the IC50 was > 25 µM (inactive).
In the case of `O=C(CCn1sc2ccccc2c1=O)Nc1ccccc1`, the IC50 is reported as 9.92 µM.
With `O=C(Nc1cc(Cl)ccc1C(=O)O)c1ccccc1` the IC50 was > 25 µM (inactive).
In the case of `N#Cc1ccc2sn(-c3ccccc3)c(=O)c2c1`, the IC50 is reported as > 25 µM (inactive).
For `CC(C)(C)c1ccc(C(=O)Nc2cc(Cl)c(Cl)cc2C(=O)O)cc1`, the IC50 was > 25 µM (inactive).
For `COc1ccc(C(=O)N2CCC(=O)c3ccc(Cl)cc32)cc1`, the IC50 was > 25 µM (inactive).
With `O=C(Cn1sc2ccccc2c1=O)Nc1ccccc1Br` the IC50 was > 25 µM (inactive).
With `O=C(O)c1ccc(Cl)cc1NC(=O)C1CCOCC1` the IC50 was > 25 µM (inactive).
`O=C(Cn1sc2ccccc2c1=O)N1CCCCC1` showed an IC50 of 16.5 µM.
In the case of `COc1ccccc1C(=O)Nc1cc(Cl)ccc1C(=O)O`, the IC50 is reported as > 25 µM (inactive).
In the case of `COc1ccc(-c2cc3ccccc3[nH]2)cc1`, the IC50 is reported as > 25 µM (inactive).
In the case of `O=C1c2ccccc2S(=O)N1c1cccc(F)c1` (configuration not stated), the IC50 is reported as > 25 µM (inactive).
In the case of `O=C(Nc1cc(Cl)ccc1C(=O)O)c1ccc(Cc2ccccc2)cc1`, the IC50 is reported as > 25 µM (inactive).
For `O=C(Cn1sc2ccccc2c1=O)Nc1ccccc1Cl`, the IC50 was > 25 µM (inactive).
For `O=C(Cn1sc2ccccc2c1=O)Nc1ccccc1F`, the IC50 was > 25 µM (inactive).
`O=C1c2ccccc2S(=O)N1c1ccc(Cl)cc1` (configuration not stated) was tested, and the IC50 was > 25 µM (inactive).
In the case of `O=C(Cn1sc2ccccc2c1=O)Nc1ccc(Cl)cc1`, the IC50 is reported as > 25 µM (inactive).
`COc1ccc2c(=O)n(-c3ccccc3)sc2c1` was tested, and the IC50 was > 25 µM (inactive).
With `COc1ccc(C(=O)Nc2cc(Cl)ccc2[N+](=O)[O-])cc1` the IC50 was > 25 µM (inactive).
In the case of `O=c1c2ccc(Br)cc2sn1-c1ccccc1`, the IC50 is reported as > 25 µM (inactive).
For `COc1ccc(C(=O)Nc2cc(Cl)ccc2S(N)(=O)=O)cc1`, the IC50 was > 25 µM (inactive).
`CN(C)c1ccc(NC(=O)Cn2sc3ccccc3c2=O)cc1` showed an IC50 of 18.4 µM.
`O=c1c2ccccc2sn1-c1ccccc1Cl` showed an IC50 of 4.81 µM.
`O=c1c2ccccc2sn1-c1ccccc1F` showed an IC50 of 5.4 µM.
`CC(=O)Nc1cc(Cl)ccc1C(=O)O` was tested, and the IC50 was > 25 µM (inactive).
`Cn1c2ccccc2c(=O)n1-c1ccccc1` was tested, and the IC50 was > 25 µM (inactive).
`COc1ccc(C(=O)Nc2ccc(Cl)cc2C(=O)O)cc1` was tested, and the IC50 was > 25 µM (inactive).
In the case of `COc1ccc(C(=O)Nc2cc(Br)ccc2C(=O)O)cc1`, the IC50 is reported as > 25 µM (inactive).
`CCOC(=O)c1ccncc1NC(=O)c1ccc(OC)cc1` was tested, and the IC50 was > 25 µM (inactive).
With `O=C(Nc1cc(Cl)ccc1C(=O)O)c1ccc(-c2cccs2)cc1` the IC50 was > 25 µM (inactive).
For `N#Cc1ccc2c(=O)n(-c3ccccc3)sc2c1`, the IC50 was > 25 µM (inactive).
For `O=C(Nc1cc(Cl)ccc1C(=O)O)c1ccc(OC(F)(F)F)cc1`, the IC50 was > 25 µM (inactive).
In the case of `Cc1ccc(-n2sc3ccccc3c2=O)cc1`, the IC50 is reported as 18.3 µM.
`O=C(Cn1sc2ccccc2c1=O)Nc1ccccc1C(F)(F)F` was tested, and the IC50 was > 25 µM (inactive).
`O=C(Nc1cc(Cl)ccc1C(=O)O)c1ccc(I)cc1` was tested, and the IC50 was > 25 µM (inactive).
Compound `O=c1c2ccc([N+](=O)[O-])cc2sn1-c1ccccc1` has an IC50 of 20.7 µM.
With `CCCCCCCC(=O)Nc1cc(Cl)ccc1C(=O)O` the IC50 was > 25 µM (inactive).
With `COc1ccc(NC(=O)c2ccccc2C(=O)O)cc1` the IC50 was > 25 µM (inactive).
For `COc1ccc(C(=O)NC(CC(=O)O)c2ccccc2)cc1` (configuration not stated), the IC50 was > 25 µM (inactive).
Compound `O=c1c2ccc(F)cc2sn1-c1ccccc1` has an IC50 of 7.17 µM.
`O=C(Cn1sc2ccccc2c1=O)Nc1ccc(I)cc1` was tested, and the IC50 was > 25 µM (inactive).
`O=c1c2cc(F)c(F)cc2sn1-c1ccccc1` was tested, and the IC50 was > 25 µM (inactive).
With `CC(C)(C)c1ccc(C(=O)Nc2cc(Cl)c(F)cc2C(=O)O)cc1` the IC50 was > 25 µM (inactive).
For `O=C(Nc1cc(Cl)ccc1C(=O)O)c1ccoc1`, the IC50 was > 25 µM (inactive).
With `COc1ccc(C(=O)NCC(=O)O)cc1` the IC50 was > 25 µM (inactive).
`O=c1c2ccccc2sn1-c1ccccc1` was tested, and the IC50 was 1.45 µM.
With `CN(C)c1cccc(NC(=O)Cn2sc3ccccc3c2=O)c1` the IC50 was > 25 µM (inactive).
For `O=C(Cn1sc2ccccc2c1=O)N1CCOCC1`, the IC50 was > 25 µM (inactive).
In the case of `COc1ccccc1NC(=O)Cn1sc2ccccc2c1=O`, the IC50 is reported as 12.3 µM.
`Cc1ccccc1-n1sc2cc(F)ccc2c1=O` showed an IC50 of 5.6 µM.
`CC(C)(C)c1ccc(C(=O)Nc2c(C(=O)O)ccc(Cl)c2Cl)cc1` was tested, and the IC50 was > 25 µM (inactive).
For `O=c1c2cc(Br)ccc2sn1-c1ccccc1`, the IC50 was > 25 µM (inactive).
For `CC(C)(C)c1ccc(C(=O)Nc2cc(Cl)ccc2C(=O)O)cc1`, the IC50 was > 25 µM (inactive).
`OB1OCc2cc(C(F)(F)F)ccc21` was tested, and the IC50 was > 25 µM (inactive).
`COc1ccc(NC(=O)c2ccc(Cl)cc2C(=O)O)cc1` was tested, and the IC50 was > 25 µM (inactive).
In the case of `O=C(Cn1sc2ccccc2c1=O)Nc1cccc(I)c1`, the IC50 is reported as > 25 µM (inactive).
In the case of `Cc1ccc(C(=O)Nc2cc(Cl)ccc2C(=O)O)c(C)c1`, the IC50 is reported as > 25 µM (inactive).
